Reference: publication PMC9299836 (eLife, 2022)
Where “and” joins values, the source holds several entries; their conditions need not be identical. Equal values may be shown once.

Experiments:
[1] = target: mGluR2 (Mus musculus, UniProt Q14BI2, A548F); assay: Live-cell FRET, azi-CRD (cysteine-rich domain) sensor in HEK293T cells; conditions: for Normalized FRET response, Mean (azi-CRD agonist DRC): maximal responses normalized to 1mM glutamate
[2] = target: T1, mGluR2 (Mus musculus, UniProt Q14BI2); assay: Live-cell FRET, SNAP-m2 (VFT domain) inter-subunit sensor in HEK293T cells; conditions: for Normalized FRET response, Mean (SNAP-m2 agonist DRC): maximal responses normalized to 1mM glutamate;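 for all read-outs here: apparent FRET efficiency from whole-membrane ROIs of single cells, corrected for donor bleed-through and background, ΔFRET as treatment minus pretreatment signal, recorded at room temperature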
[3] = target: mGluR2 (Mus musculus, UniProt Q14BI2, INS715F); assay: Live-cell FRET, azi-ECL2 (7TM domain, extracellular loop 2) sensor in HEK293T cells;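 note: Cy3/Cy5 click-labeled sensor, whole-membrane ROIs per cell, apparent FRET after bleed-through correction, ΔFRET as treatment minus pre-treatment signal, at room temperature, at least three biological replicates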
[4] = target: T1, mGluR2; assay: Functional calcium imaging, SNAP-mGluR2 (no FLAG-tag) with chimeric G protein Gqo5 in HEK293T cells; assay type: cell-based; design: Full length mGluR2 construct with an amber codon (TAG) mutation of amino acid A548 (azi-CRD) or N-terminal SNAP-tag (SNAP-mGluR2); host or cells: HEK293T; conditions: for Intracellular Ca2+ response, Mean / Intracellular Ca2+ response: normalized to 1mM glutamate; for Intracellular Ca2+ response: single experiments

T1 sequence (Q14BI2 19-872): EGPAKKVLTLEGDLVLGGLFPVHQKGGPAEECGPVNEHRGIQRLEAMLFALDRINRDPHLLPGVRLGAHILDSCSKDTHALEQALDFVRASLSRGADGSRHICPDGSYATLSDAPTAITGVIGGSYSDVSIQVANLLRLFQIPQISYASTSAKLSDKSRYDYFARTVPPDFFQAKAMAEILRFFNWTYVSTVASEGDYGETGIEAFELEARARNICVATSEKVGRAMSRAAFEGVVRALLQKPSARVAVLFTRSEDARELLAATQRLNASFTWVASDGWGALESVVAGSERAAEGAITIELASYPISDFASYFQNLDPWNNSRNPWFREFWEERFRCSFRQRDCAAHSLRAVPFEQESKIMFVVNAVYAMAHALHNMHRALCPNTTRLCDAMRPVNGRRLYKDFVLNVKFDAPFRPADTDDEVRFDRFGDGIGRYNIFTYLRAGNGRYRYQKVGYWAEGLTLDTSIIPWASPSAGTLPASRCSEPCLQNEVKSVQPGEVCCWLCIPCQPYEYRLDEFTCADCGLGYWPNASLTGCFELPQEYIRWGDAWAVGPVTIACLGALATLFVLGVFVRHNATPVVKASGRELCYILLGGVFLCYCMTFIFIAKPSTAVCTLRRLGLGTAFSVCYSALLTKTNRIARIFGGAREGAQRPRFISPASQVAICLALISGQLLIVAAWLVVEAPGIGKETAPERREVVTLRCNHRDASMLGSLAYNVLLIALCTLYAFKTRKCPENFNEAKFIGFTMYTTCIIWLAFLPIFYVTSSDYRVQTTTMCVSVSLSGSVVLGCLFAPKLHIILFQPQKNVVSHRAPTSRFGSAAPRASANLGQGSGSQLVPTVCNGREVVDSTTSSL
mGluR2 (Mus musculus, UniProt Q14BI2, A548F), sequence (Q14BI2 19-872 A548F): as the sequence (Q14BI2 19-872) above, with A530F counted along it
mGluR2 (Mus musculus, UniProt Q14BI2, INS715F), sequence (Q14BI2 with tags, fused parts or gaps INS715F): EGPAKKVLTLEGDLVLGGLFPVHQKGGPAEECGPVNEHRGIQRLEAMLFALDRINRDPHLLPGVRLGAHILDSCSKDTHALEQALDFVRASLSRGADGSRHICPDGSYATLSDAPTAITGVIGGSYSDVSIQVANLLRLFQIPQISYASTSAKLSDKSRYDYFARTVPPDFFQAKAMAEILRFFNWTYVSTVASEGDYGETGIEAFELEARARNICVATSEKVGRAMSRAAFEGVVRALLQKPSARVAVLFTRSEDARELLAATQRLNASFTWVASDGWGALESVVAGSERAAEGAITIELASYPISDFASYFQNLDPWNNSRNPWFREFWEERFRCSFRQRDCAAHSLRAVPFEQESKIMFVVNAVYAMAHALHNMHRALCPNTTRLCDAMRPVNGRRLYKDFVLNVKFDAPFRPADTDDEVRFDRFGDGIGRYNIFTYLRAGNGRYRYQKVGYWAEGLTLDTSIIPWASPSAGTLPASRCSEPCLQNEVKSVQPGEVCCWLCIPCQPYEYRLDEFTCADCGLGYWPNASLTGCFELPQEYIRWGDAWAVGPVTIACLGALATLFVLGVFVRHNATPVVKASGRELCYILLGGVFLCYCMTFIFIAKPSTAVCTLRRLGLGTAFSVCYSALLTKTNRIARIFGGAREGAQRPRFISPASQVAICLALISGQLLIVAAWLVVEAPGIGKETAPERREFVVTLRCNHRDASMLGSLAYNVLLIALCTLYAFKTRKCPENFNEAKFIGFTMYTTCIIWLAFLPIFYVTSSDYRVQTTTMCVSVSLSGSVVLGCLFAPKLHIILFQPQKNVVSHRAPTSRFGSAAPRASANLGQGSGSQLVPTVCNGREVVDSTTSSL

N[C@@]1(C(=O)O)CO[C@H]2[C@H](C(=O)O)[C@H]21 [LY379268]
EC50 ([1]; Live-cell FRET titration EC50, azi-CRD, agonist alone, individual experiments): 12.7 nM and 14.3 nM and 9.97 nM and 8.96 nM and 10.9 nM and 13.4 nM and 14.5 nM and 16 nM and 14.4 nM and 12.2 nM and 11.3 nM and 13.2 nM and 11.7 nM and 11.4 nM and 10.4 nM and 14.2 nM and 9.03 nM and 7.75 nM
EC50 ([1]; Mean half-maximum effective concentration (EC50), azi-CRD sensor, orthosteric agonist alone, nM for LY379268 (footnote)): 12.1 nM
Hill slope ([1]; azi-CRD sensor, orthosteric agonist alone): 1.36
Live-cell FRET max response normalized to 1mM glutamate ([1]; azi-CRD sensor, LY379268, individual values (N=25)): 1.396 and 1.075 and 1.11 and 1.161 and 1.042 (2×) and 1.039 and 1.015 and 1.054 and 0.99 and 1.034 and 0.9879 and 0.9896 and 1.016 and 1.007 and 1.046 and 1.009 (2×) and 0.9955 and 1.0569 and 1.003 and 0.9915 and 1.157 and 1.205 and 1.123
Mean max response (normalized max ΔFRET) ([1]; azi-CRD, agonist alone (1 mM glutamate, 100 μM DCG-IV, 20 μM LY379268, 100 μM APDC), normalized to 1 mM glutamate): 1.06
Normalized Max ΔFRET, Mean ([1]; azi-CRD, 20μM agonist, mean of cells, normalized to 1mM glutamate): 106.212
Normalized FRET response, Mean (azi-CRD agonist DRC) ([1]; log[ligand] (M) -4.69897): 1.062
Normalized FRET response, Mean (azi-CRD agonist DRC) ([1]; log[ligand] (M) -6): 1.058
Normalized FRET response, Mean (azi-CRD agonist DRC) ([1]; log[ligand] (M) -7.1549): 0.9652
Normalized FRET response, Mean (azi-CRD agonist DRC) ([1]; log[ligand] (M) -7.52288): 0.8398
Normalized FRET response, Mean (azi-CRD agonist DRC) ([1]; log[ligand] (M) -8): 0.4669
Normalized FRET response, Mean (azi-CRD agonist DRC) ([1]; log[ligand] (M) -8.39794): 0.1943
Normalized FRET response, Mean (azi-CRD agonist DRC) ([1]; log[ligand] (M) -8.82391): 0.06461
Normalized FRET response, Mean (azi-CRD agonist DRC) ([1]; log[ligand] (M) -9.52288): 0.04231
Normalized FRET response, Mean (azi-CRD agonist DRC) ([1]; log[ligand] (M) -10): 0
Emax ([2]; HEK-293T, read-out: Normalized Max ΔFRET, SNAP-m2, 20μM agonist, individual cells, normalized to 1mM glutamate): 101%
EC50 ([2]; Mean half-maximum effective concentration (EC50), SNAP-m2 sensor, orthosteric agonist alone, nM for LY379268 (footnote)): 30.6 nM
Mean max response (normalized max ΔFRET) ([2]; SNAP-m2 (VFT), agonist alone (1 mM glutamate, 100 μM DCG-IV, 20 μM LY379268, 100 μM APDC), normalized to 1 mM glutamate): 1.01
Normalized Max ΔFRET, Mean ([2]; SNAP-m2, 20μM agonist, mean of cells, normalized to 1mM glutamate): 101.061
Hill slope ([2]; SNAP-m2 sensor, orthosteric agonist alone): –1.12
Live-cell FRET max response normalized to 1mM glutamate ([2]; SNAP-m2 sensor, LY379268, individual values (N=23)): 0.9967 and 0.9702 and 0.9948 and 1.036 and 0.962 and 0.9651 and 1.05 (3×) and 1.035 and 1.049 and 1.015 and 0.9906 and 1.057 and 1.051 and 0.9532 and 0.9752 and 0.9335 and 1.106 and 1.013 and 0.9759 and 0.9961 and 1.019
Normalized FRET response, Mean (SNAP-m2 agonist DRC) ([2]; log[ligand] (M) -6): -1.011
Normalized FRET response, Mean (SNAP-m2 agonist DRC) ([2]; log[ligand] (M) -6.69897): -1.017
Normalized FRET response, Mean (SNAP-m2 agonist DRC) ([2]; log[ligand] (M) -7.1549): -0.7975
Normalized FRET response, Mean (SNAP-m2 agonist DRC) ([2]; log[ligand] (M) -7.52288): -0.6707
Normalized FRET response, Mean (SNAP-m2 agonist DRC) ([2]; log[ligand] (M) -8): -0.3677
Normalized FRET response, Mean (SNAP-m2 agonist DRC) ([2]; log[ligand] (M) -8.39794): -0.1637
Normalized FRET response, Mean (SNAP-m2 agonist DRC) ([2]; log[ligand] (M) -8.82391): -0.07424
Normalized FRET response, Mean (SNAP-m2 agonist DRC) ([2]; log[ligand] (M) -9.52288): -0.01697
Normalized FRET response, Mean (SNAP-m2 agonist DRC) ([2]; log[ligand] (M) -10): -0.0059
Normalized FRET response, Mean (SNAP-m2 agonist DRC) ([2]; log[ligand] (M) -10.699): 0
EC50 ([3]; EC50, live-cell FRET titration, azi-ECL2 sensor, LY379268, individual cell values (N=9)): 6.91 nM and 29 nM and 9.62 nM and 9.94 nM and 8.57 nM and 6.02 nM and 9.91 nM and 5.72 nM and 5.97 nM
EC50 ([3]; Mean half-maximum effective concentration (EC50), azi-ECL2 sensor, orthosteric agonist alone, nM for LY379268 (footnote)): 10.2 nM
Mean max response (normalized max ΔFRET) ([3]; azi-ECL2, agonist alone (1 mM glutamate, 100 μM DCG-IV, 20 μM LY379268, 100 μM APDC), normalized to 1 mM glutamate): 1.14
Normalized ΔFRET response, Mean (agonist DRC) ([3]; azi-ECL2, log[agonist] (M) -4.69897, normalized to 1 mM glutamate): 1.14
Normalized ΔFRET response, Mean (agonist DRC) ([3]; azi-ECL2, log[agonist] (M) -6, normalized to 1 mM glutamate): 1.108
Normalized ΔFRET response, Mean (agonist DRC) ([3]; azi-ECL2, log[agonist] (M) -7.1549, normalized to 1 mM glutamate): 1.024
Normalized ΔFRET response, Mean (agonist DRC) ([3]; azi-ECL2, log[agonist] (M) -7.52288, normalized to 1 mM glutamate): 0.9098
Normalized ΔFRET response, Mean (agonist DRC) ([3]; azi-ECL2, log[agonist] (M) -8, normalized to 1 mM glutamate): 0.6174
Normalized ΔFRET response, Mean (agonist DRC) ([3]; azi-ECL2, log[agonist] (M) -8.39794, normalized to 1 mM glutamate): 0.327
Normalized ΔFRET response, Mean (agonist DRC) ([3]; azi-ECL2, log[agonist] (M) -8.82391, normalized to 1 mM glutamate): 0.1901
Normalized ΔFRET response, Mean (agonist DRC) ([3]; azi-ECL2, log[agonist] (M) -9.52288, normalized to 1 mM glutamate): 0.0544
Normalized ΔFRET response, Mean (agonist DRC) ([3]; azi-ECL2, log[agonist] (M) -10, normalized to 1 mM glutamate): 0
Normalized ΔFRET response, Mean (agonist DRC) ([3]; azi-ECL2, log[agonist] (M) -10.699, normalized to 1 mM glutamate): 0
Normalized Max ΔFRET, Mean ([3]; azi-ECL2, 20μM agonist, mean of cells, normalized to 1mM glutamate): 114.025
Hill slope ([3]; azi-ECL2 sensor, orthosteric agonist alone): 1.03
Live-cell FRET max response normalized to 1mM glutamate ([3]; azi-ECL2 sensor, LY379268, individual values (N=22)): 0.9523 and 0.965 and 0.9976 and 1.05 and 1.063 and 1.017 and 1.16 and 1.1 and 1.538 and 1.083 and 1.3913 and 1.033 and 1.4421 and 1.297 and 1.208 and 1.454 and 1.223 and 1.042 and 0.9949 and 1.12 and 0.9608 and 0.9946
Normalized Max Intracellular Ca2+ Response, individual experiments ([4]; 100 μM DCG-IV, 10 μM LY379268, 300 μM APDC, normalized to 1 mM glutamate, single replicate): 1.134 and 1.073 and 0.9696
Normalized Max Intracellular Ca2+ Response, mean ([4]; 1 mM Glu, 100 μM DCG-IV, 10 μM LY379268, 300 μM APDC, normalized to 1 mM glutamate): 1.059
Intracellular Ca2+ response, Mean ([4]; log[agonist] (M) -5): 1.059
Intracellular Ca2+ response ([4]; log[agonist] (M) -5): 1.059
Intracellular Ca2+ response, Mean ([4]; log[agonist] (M) -5.30103): 1.029
Intracellular Ca2+ response ([4]; log[agonist] (M) -5.30103): 1.067 and 1.001 and 1.018
Intracellular Ca2+ response, Mean ([4]; log[agonist] (M) -5.69897): 1.028
Intracellular Ca2+ response ([4]; log[agonist] (M) -5.69897): 0.9461 and 1.043 and 1.094
Intracellular Ca2+ response, Mean ([4]; log[agonist] (M) -6): 1.014
Intracellular Ca2+ response ([4]; log[agonist] (M) -6): 0.8943 and 1.055 and 1.093
Intracellular Ca2+ response, Mean ([4]; log[agonist] (M) -6.60206): 0.8831
Intracellular Ca2+ response ([4]; log[agonist] (M) -6.60206): 0.7751 and 0.9366 and 0.9375
Intracellular Ca2+ response, Mean ([4]; log[agonist] (M) -7.1549): 0.4554
Intracellular Ca2+ response ([4]; log[agonist] (M) -7.1549): 0.4206 and 0.5128 and 0.4328
Intracellular Ca2+ response, Mean ([4]; log[agonist] (M) -7.52288): 0.1775
Intracellular Ca2+ response ([4]; log[agonist] (M) -7.52288): 0.2096 and 0.1787 and 0.1441
Intracellular Ca2+ response, Mean ([4]; log[agonist] (M) -8): 0.00736
Intracellular Ca2+ response, Mean ([4]; log[agonist] (M) -8.39794): 0
Intracellular Ca2+ response ([4]; log[agonist] (M) -8.39794): 0
Intracellular Ca2+ response, Mean ([4]; log[agonist] (M) -8.82391): 0
Intracellular Ca2+ response ([4]; log[agonist] (M) -8.82391): 0
Intracellular Ca2+ response, Mean ([4]; log[agonist] (M) -9.52288): 0
Intracellular Ca2+ response ([4]; log[agonist] (M) -9.52288): 0
Intracellular Ca2+ response, Mean ([4]; log[agonist] (M) -10): 0
Intracellular Ca2+ response ([4]; log[agonist] (M) -10): 0
EC50 ([4]; one value per experiment, read-out: EC50, intracellular Ca2+ response): 84.9 nM and 98.9 nM and 71 nM
